Experimental data: patent US20080242649A1, “New Combination 665” (priority 2007, published 2008)
Structures can show the parent of a compound that is named as a salt.

Key:
[1] = target: T1, recombinant human adrenergic beta 1 receptors (Homo sapiens, UniProt P08588); test: Adrenergic β1 [125I]-Iodocyanopindolol binding; conditions: inhibition of [125I]-Iodocyanopindolol binding; read-out: β1 bind pIC50 (converted)
T1 construct: purchased Euroscreen
Experimental: Membranes containing recombinant human adrenergic beta 1 receptors were obtained from Euroscreen. These were diluted in Assay Buffer (50 mM HEPES, 1 mM EDTA, 120 mM NaCl, 0.1% gelatin, pH 7.4) to provide a final concentration of membranes that gave a clear window between maximum and minimum specific binding.
Assays were performed in U-bottomed 96-well polypropylene plates. 10 PL [1251]-Iodocyanopindolol (0.036 nM final concentration) and 10 μL of Compound A (10× final concentration) were added to each test well. For each assay plate 8 replicates were obtained for [^125]-Iodocyanopindolol binding in the presence of 10 μL vehicle (10% (v/v) DMSO in Assay Buffer; defining maximum binding) or 10 μL Propranolol (10 μM final concentration; defining non-specific binding (NSB)). Membranes were then added to achieve a final volume of 100 μL. […] Five washes with 250 μL wash buffer (50 mM HEPES, 1 mM EDTA, 120 mM NaCl, pH 7.4) were performed at 4° C. to remove unbound radioactivity. […] The plates were sealed (TopSeal A) and filter-bound radioactivity was measured with a scintillation counter (TopCount, Packard BioScience) using a 3-minute counting protocol.
Total specific binding (B0) was determined by subtracting the mean NSB from the mean maximum binding. […]

[2] = tested on: LPS-induced intra-alveolar neutrophilia; test: Intra-alveolar neutrophil migration after intratracheal LPS challenge in the CRL:CD rat; type: in vivo
Experimental: Evaluation of Compound Activity on Intra-Alveolar Neutrophil Migration after Intratracheal Challenge with Lipopolysacharride (LPS) in the CRL:CD Rat
LPS challenge in CRL:CD rats causes an influx of neutrophils into the lungs. Under recoverable gaseous anaesthesia (5% isoflorane in oxygen), rats were dosed via the intratracheal route with vehicle (0.05M phosphate, 0.1% Tween 80, 0.6% saline, pH 6), or compound 30 min before challenge with an intratracheal dose of 10 μg/kg LPS.
The rats (250-400 g) were euthanized 4 hr after LPS challenge with 1 mL pentobarbitone sodium. A tracheotomy was performed and a cannula inserted. The airway was then lavaged using 3 mL Isoton at room temperature. The Isoton (BeckmanCoulter, High Wycombe, UK) was left in the airway for 10 seconds before being removed. The bronchio-alveolar lavage (BAL) fluid containing inflammatory cells was placed into a 15 mL centrifuge tube and kept on ice. This process was repeated three times. An aliquot of BAL fluid was removed and the inflammatory cells were counted on Sysmex (Sysmex UK, Milton Keynes). Neutrophils were expressed in millions/animal (mean ±s.e.mean).

T1 sequence (P08588 whole entry): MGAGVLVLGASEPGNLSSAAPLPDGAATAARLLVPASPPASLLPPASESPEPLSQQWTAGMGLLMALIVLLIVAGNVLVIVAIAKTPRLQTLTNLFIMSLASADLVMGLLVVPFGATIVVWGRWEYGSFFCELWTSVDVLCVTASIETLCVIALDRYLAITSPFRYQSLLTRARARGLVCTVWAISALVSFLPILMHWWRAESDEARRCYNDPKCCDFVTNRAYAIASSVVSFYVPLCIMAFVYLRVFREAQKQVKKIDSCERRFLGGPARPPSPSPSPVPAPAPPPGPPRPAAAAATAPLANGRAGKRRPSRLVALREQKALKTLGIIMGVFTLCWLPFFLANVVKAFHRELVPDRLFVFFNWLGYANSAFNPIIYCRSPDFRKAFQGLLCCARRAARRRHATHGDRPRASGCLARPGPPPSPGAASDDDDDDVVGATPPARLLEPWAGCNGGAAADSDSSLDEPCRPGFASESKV

## CCN(CC)CCN(CCNCCc1ccc(O)c2[nH]c(=O)sc12)C(=O)CCOCCc1cccc2ccccc12 [Compound A, N-[2-(Diethylamino)ethyl]-N-(2-{[2-(4-hydroxy-2-oxo-2,3-dihydro-1,3-benzothiazol-7-yl)ethyl]amino}ethyl)-3-[2-(1-naphthyl)ethoxy]propanamide dihydrobromide]
[1]
  IC50: > 10 µM
[2]; Compound W study, compound A 0.1 μg/kg intratracheal 30 min prior to LPS
  inhibition of neutrophilia: 43%
[2]; Compound W study, compound A 0.1 μg/kg, vehicle/LPS 11±1.8
  neutrophils in BAL: 5.0±0.70 million/animal
[2]; Compound X study, compound A 0.1 μg/kg intratracheal 30 min prior to LPS
  inhibition of neutrophilia: 26%
[2]; Compound X study, compound A 0.1 μg/kg, vehicle/LPS 12±1.7
  neutrophils in BAL: 9.1±1.1 million/animal
[2]; budesonide study, compound A 0.2 μg/kg intratracheal 30 min prior to LPS 10 μg/kg, BAL 4 hr
  inhibition of neutrophilia: 45%
[2]; budesonide study, compound A 0.2 μg/kg intratracheal, mean ±s.e.mean, vehicle/LPS 14±1.6
  neutrophils in BAL: 7.8±0.71 million/animal
